Laboratory results as given in US9238631B2, “Radiolabeled amino acids for diagnostic imaging” (PIRAMAL IMAGING SA, priority 2011, dated 2016).

Tested on: NCI-H460 tumor
Assay: In vivo biodistribution in NCI-H460 tumor bearing mice
Design: Summary: organs / Summary: Carcass / Summary: faeces: unit not given here
Settings: for Summary: urine: in %; for Summary: Recovery: in % (unit assumed)
Method in brief: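 Biodistribution of 18F-labeled compounds was assessed in female NMRI (nu/nu) mice bearing NCI-H460 tumors, established by inoculating 5×10^6 cells 8 to 10 days beforehand. Each mouse received 185 kBq of the fluorinated tracer; at least n=3 animals per time point were sacrificed, organs excised, and radioactivity quantified with a γ-counter.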

Question: How did the “Pancreas uptake (% ID/g)” value (0.25 h p.i.) turn out when `N[C@@H](CCC(Cc1ccc(OCC[18F])cc1)C(=O)O)C(=O)O` (stereo partly drawn) [[^18F]-12] [(2S)-2-Amino-5-[4-(2-[^18F]fluoroethoxy)benzyl]hexanedioic acid] was run?
Answer: 11.45 % ID/g

Question: What about the “Pancreas (% ID/g at 1 h p.i.)” value (1 h p.i.) of the same molecule?
Answer: 3.62 % ID/g

Question: What about the “Tumor (% ID/g at 1 h p.i.)” value (1 h p.i.) of the same molecule?
Answer: 6.47 % ID/g

Question: What about the “Urine (% ID at 1 h p.i.)” value (1 h p.i.) of the same molecule?
Answer: 82.1 ± 7.3 % ID

Question: And the “activity excreted (kidneys/urine)” value (1 h p.i.)?
Answer: 82.1%

Question: And the tumor-to-pancreas ratio (1 h p.i.)?
Answer: 1.8

Question: And the T/Blood (1 h post injection)?
Answer: 33.9

Question: And the T/Muscle (1 h post injection)?
Answer: 103.4

Question: What about the “Tumor uptake (% ID/g)” value (2 h p.i.) of the same molecule?
Answer: 7.21 % ID/g

Question: What about the “Tumor uptake (% ID/g)” value (4 h p.i.) of the same molecule?
Answer: 5.17 % ID/g

Question: What about the “tumor uptake and retention (summary statement)” value (mouse, in vivo) of the same molecule?
Answer: high tumor uptake and retention

Question: And the “Adrenals (% Dosis/g)” value (timepoint 0.25 h)?
Answer: 0.69 % Dosis/g

Question: And the “Blood (% Dosis/g)” value (timepoint 0.25 h)?
Answer: 1.28 % Dosis/g

Question: What about the “Bone (% Dosis/g)” value (timepoint 0.25 h) of the same molecule?
Answer: 0.39 % Dosis/g

Question: What about the “Brain (% Dosis/g)” value (timepoint 0.25 h) of the same molecule?
Answer: 0.09 % Dosis/g

Question: And the “Fat (% Dosis/g)” value (timepoint 0.25 h)?
Answer: 0.16 % Dosis/g

Question: And the “Gallbladder (% Dosis/g)” value (timepoint 0.25 h)?
Answer: 2.53 % Dosis/g

Question: And the “Heart (% Dosis/g)” value (timepoint 0.25 h)?
Answer: 0.58 % Dosis/g

Question: And the “Intestine (% Dosis/g)” value (timepoint 0.25 h)?
Answer: 1.10 % Dosis/g

Question: And the “Liver (% Dosis/g)” value (timepoint 0.25 h)?
Answer: 9.02 % Dosis/g

Question: What about the “Muscle (% Dosis/g)” value (timepoint 0.25 h) of the same molecule?
Answer: 0.26 % Dosis/g

Question: What about the “Ovaries (% Dosis/g)” value (timepoint 0.25 h) of the same molecule?
Answer: 1.25 % Dosis/g

Question: What about the “Pancreas (% Dosis/g)” value (timepoint 0.25 h) of the same molecule?
Answer: 11.45 % Dosis/g

Question: And the “Skin (% Dosis/g)” value (timepoint 0.25 h)?
Answer: 1.58 % Dosis/g

Question: And the “Spleen (% Dosis/g)” value (timepoint 0.25 h)?
Answer: 2.49 % Dosis/g

Question: What about the “Stomach (% Dosis/g)” value (timepoint 0.25 h) of the same molecule?
Answer: 3.08 % Dosis/g

Question: What about the “Summary: Carcass” value (timepoint 0.25 h) of the same molecule?
Answer: 9.55

Question: What about the “Summary: organs” value (timepoint 0.25 h) of the same molecule?
Answer: 36.92

Question: And the “Tail (% Dosis/g)” value (timepoint 0.25 h)?
Answer: 3.02 % Dosis/g

Question: And the “Thyroid (% Dosis/g)” value (timepoint 0.25 h)?
Answer: 0.78 % Dosis/g

Question: What about the “Tumor (% Dosis/g)” value (timepoint 0.25 h) of the same molecule?
Answer: 5.55 % Dosis/g

Question: And the “Tumor/Tissue: Adrenals” value (timepoint 0.25 h)?
Answer: 8.53

Question: And the “Tumor/Tissue: Blood” value (timepoint 0.25 h)?
Answer: 4.49

Question: What about the “Tumor/Tissue: Bone” value (timepoint 0.25 h) of the same molecule?
Answer: 14.61

Question: And the “Tumor/Tissue: Brain” value (timepoint 0.25 h)?
Answer: 62.27

Question: And the “Tumor/Tissue: Fat” value (timepoint 0.25 h)?
Answer: 37.81

Question: And the “Tumor/Tissue: Gallbladder” value (timepoint 0.25 h)?
Answer: 2.19

Question: What about the “Tumor/Tissue: Heart” value (timepoint 0.25 h) of the same molecule?
Answer: 9.67

Question: What about the “Tumor/Tissue: Intestine” value (timepoint 0.25 h) of the same molecule?
Answer: 4.93

Question: And the “Tumor/Tissue: Kidney” value (timepoint 0.25 h)?
Answer: 0.36

Question: What about the “Tumor/Tissue: Liver” value (timepoint 0.25 h) of the same molecule?
Answer: 0.62

Question: What about the “Tumor/Tissue: Lung” value (timepoint 0.25 h) of the same molecule?
Answer: 3.79

Question: And the “Tumor/Tissue: Muscle” value (timepoint 0.25 h)?
Answer: 20.90

Question: What about the “Tumor/Tissue: Ovaries” value (timepoint 0.25 h) of the same molecule?
Answer: 4.55

Question: What about the “Tumor/Tissue: Pancreas” value (timepoint 0.25 h) of the same molecule?
Answer: 0.49

Question: And the “Tumor/Tissue: Skin” value (timepoint 0.25 h)?
Answer: 3.71

Question: And the “Tumor/Tissue: Spleen” value (timepoint 0.25 h)?
Answer: 2.27

Question: What about the “Tumor/Tissue: Stomach” value (timepoint 0.25 h) of the same molecule?
Answer: 1.75

Question: What about the “Tumor/Tissue: Thyroid” value (timepoint 0.25 h) of the same molecule?
Answer: 7.48

Question: And the “Tumor/Tissue: Uterus” value (timepoint 0.25 h)?
Answer: 2.31

Question: What about the “Uterus (% Dosis/g)” value (timepoint 0.25 h) of the same molecule?
Answer: 2.54 % Dosis/g

Question: And the “Summary: urine” value (timepoint 0.25 h)?
Answer: 50.49

Question: And the “Summary: Recovery” value (timepoint 0.25 h)?
Answer: 96.96

Question: What about the “Adrenals (% Dosis/g)” value (timepoint 0.5 h) of the same molecule?
Answer: 0.57 % Dosis/g

Question: What about the “Blood (% Dosis/g)” value (timepoint 0.5 h) of the same molecule?
Answer: 0.74 % Dosis/g

Question: What about the “Bone (% Dosis/g)” value (timepoint 0.5 h) of the same molecule?
Answer: 0.30 % Dosis/g

Question: What about the “Brain (% Dosis/g)” value (timepoint 0.5 h) of the same molecule?
Answer: 0.07 % Dosis/g

Question: And the “Fat (% Dosis/g)” value (timepoint 0.5 h)?
Answer: 0.12 % Dosis/g

Question: And the “Gallbladder (% Dosis/g)” value (timepoint 0.5 h)?
Answer: 5.25 % Dosis/g

Question: And the “Heart (% Dosis/g)” value (timepoint 0.5 h)?
Answer: 0.38 % Dosis/g

Question: And the “Intestine (% Dosis/g)” value (timepoint 0.5 h)?
Answer: 4.00 % Dosis/g

Question: What about the “Liver (% Dosis/g)” value (timepoint 0.5 h) of the same molecule?
Answer: 5.93 % Dosis/g

Question: What about the “Muscle (% Dosis/g)” value (timepoint 0.5 h) of the same molecule?
Answer: 0.15 % Dosis/g

Question: What about the “Ovaries (% Dosis/g)” value (timepoint 0.5 h) of the same molecule?
Answer: 1.06 % Dosis/g

Question: What about the “Pancreas (% Dosis/g)” value (timepoint 0.5 h) of the same molecule?
Answer: 9.94 % Dosis/g

Question: And the “Skin (% Dosis/g)” value (timepoint 0.5 h)?
Answer: 1.08 % Dosis/g

Question: And the “Spleen (% Dosis/g)” value (timepoint 0.5 h)?
Answer: 1.94 % Dosis/g

Question: What about the “Stomach (% Dosis/g)” value (timepoint 0.5 h) of the same molecule?
Answer: 4.18 % Dosis/g

Question: What about the “Summary: Carcass” value (timepoint 0.5 h) of the same molecule?
Answer: 7.31

Question: And the “Summary: faeces” value (timepoint 0.5 h)?
Answer: 0.10

Question: What about the “Summary: organs” value (timepoint 0.5 h) of the same molecule?
Answer: 33.35

Question: And the “Tail (% Dosis/g)” value (timepoint 0.5 h)?
Answer: 1.81 % Dosis/g

Question: What about the “Thyroid (% Dosis/g)” value (timepoint 0.5 h) of the same molecule?
Answer: 0.65 % Dosis/g

Question: And the “Tumor (% Dosis/g)” value (timepoint 0.5 h)?
Answer: 6.91 % Dosis/g

Question: And the “Tumor/Tissue: Adrenals” value (timepoint 0.5 h)?
Answer: 13.61

Question: And the “Tumor/Tissue: Blood” value (timepoint 0.5 h)?
Answer: 9.81

Question: And the “Tumor/Tissue: Bone” value (timepoint 0.5 h)?
Answer: 22.54

Question: And the “Tumor/Tissue: Brain” value (timepoint 0.5 h)?
Answer: 92.44

Question: What about the “Tumor/Tissue: Fat” value (timepoint 0.5 h) of the same molecule?
Answer: 64.26

Question: And the “Tumor/Tissue: Gallbladder” value (timepoint 0.5 h)?
Answer: 1.36

Question: What about the “Tumor/Tissue: Heart” value (timepoint 0.5 h) of the same molecule?
Answer: 20.04

Question: And the “Tumor/Tissue: Intestine” value (timepoint 0.5 h)?
Answer: 4.66

Question: And the “Tumor/Tissue: Kidney” value (timepoint 0.5 h)?
Answer: 0.79

Question: What about the “Tumor/Tissue: Liver” value (timepoint 0.5 h) of the same molecule?
Answer: 1.27

Question: What about the “Tumor/Tissue: Lung” value (timepoint 0.5 h) of the same molecule?
Answer: 7.67

Question: What about the “Tumor/Tissue: Muscle” value (timepoint 0.5 h) of the same molecule?
Answer: 45.35

Question: What about the “Tumor/Tissue: Ovaries” value (timepoint 0.5 h) of the same molecule?
Answer: 6.59

Question: What about the “Tumor/Tissue: Pancreas” value (timepoint 0.5 h) of the same molecule?
Answer: 0.68

Question: And the “Tumor/Tissue: Skin” value (timepoint 0.5 h)?
Answer: 6.42

Question: And the “Tumor/Tissue: Spleen” value (timepoint 0.5 h)?
Answer: 3.60

Question: And the “Tumor/Tissue: Stomach” value (timepoint 0.5 h)?
Answer: 2.18

Question: What about the “Tumor/Tissue: Thyroid” value (timepoint 0.5 h) of the same molecule?
Answer: 10.73

Question: What about the “Tumor/Tissue: Uterus” value (timepoint 0.5 h) of the same molecule?
Answer: 5.85

Question: And the “Uterus (% Dosis/g)” value (timepoint 0.5 h)?
Answer: 1.38 % Dosis/g

Question: What about the “Summary: urine” value (timepoint 0.5 h) of the same molecule?
Answer: 57.06

Question: What about the “Summary: Recovery” value (timepoint 0.5 h) of the same molecule?
Answer: 97.82

Question: And the “Adrenals (% Dosis/g)” value (timepoint 1.0 h)?
Answer: 0.27 % Dosis/g

Question: And the “Blood (% Dosis/g)” value (timepoint 1.0 h)?
Answer: 0.19 % Dosis/g

Question: What about the “Bone (% Dosis/g)” value (timepoint 1.0 h) of the same molecule?
Answer: 0.16 % Dosis/g

Question: And the “Brain (% Dosis/g)” value (timepoint 1.0 h)?
Answer: 0.05 % Dosis/g

Question: And the “Fat (% Dosis/g)” value (timepoint 1.0 h)?
Answer: 0.03 % Dosis/g

Question: What about the “Gallbladder (% Dosis/g)” value (timepoint 1.0 h) of the same molecule?
Answer: 8.20 % Dosis/g

Question: What about the “Heart (% Dosis/g)” value (timepoint 1.0 h) of the same molecule?
Answer: 0.11 % Dosis/g

Question: And the “Intestine (% Dosis/g)” value (timepoint 1.0 h)?
Answer: 0.91 % Dosis/g

Question: What about the “Liver (% Dosis/g)” value (timepoint 1.0 h) of the same molecule?
Answer: 2.17 % Dosis/g

Question: And the “Muscle (% Dosis/g)” value (timepoint 1.0 h)?
Answer: 0.07 % Dosis/g

Question: What about the “Ovaries (% Dosis/g)” value (timepoint 1.0 h) of the same molecule?
Answer: 0.79 % Dosis/g

Question: What about the “Pancreas (% Dosis/g)” value (timepoint 1.0 h) of the same molecule?
Answer: 3.62 % Dosis/g

Question: What about the “Skin (% Dosis/g)” value (timepoint 1.0 h) of the same molecule?
Answer: 0.61 % Dosis/g

Question: And the “Spleen (% Dosis/g)” value (timepoint 1.0 h)?
Answer: 1.54 % Dosis/g

Question: What about the “Stomach (% Dosis/g)” value (timepoint 1.0 h) of the same molecule?
Answer: 0.94 % Dosis/g

Question: And the “Summary: Carcass” value (timepoint 1.0 h)?
Answer: 3.58
